Consider nine compounds from patent US8377884B2, “Variants of C-type natriuretic peptides” (Biomarin Pharmaceutical Inc., priority 2007, dated 2013).

The half-life is the time in which the quantity being followed falls by half. A high value points to slow loss.

Like-named read-outs stand apart in the source and are kept apart here. Bridge positions count the residues as written; N and C are the ends. Ends that are not written are not given here. Peptide text beside a SMILES is read from it.

One series has as its target Recombinant human NEP (Homo sapiens, UniProt P08473). Kind of series: In vitro neutral endopeptidase (NEP) cleavage assay. The protocol: (§1) To determine the effects of amino acid substitutions, amino acid extensions, backbone modifications, side chain modifications and PEGylation on the susceptibility of CNP variants to neutral endopeptidase (NEP) cleavage, peptide cleavage assays were carried out using an in vitro assay that monitored disappearance of the non-cleaved CNP variant.
(§2) Recombinant human NEP (1 ug/mL final concentration) was added to 100 uM CNP variant diluted in 0.1 M Tris, pH 7. The reaction mixture was incubated at 37° C. for various periods of time, and the reaction was quenched with EDTA (10 mM final) followed by heat denaturation. The reaction mixture was reduced and then the reaction products were analyzed using HPLC and mass spectroscopy. The half-life of the CNP variant was calculated based on the disappearance of intact CNP variant over time.

The next series deals with T1, NPR-B (Mus musculus, UniProt Q6VVW5).
T1 construct: Murine NIH3T3 cells express endogenously the CNP signaling receptor, NPR-B; endogenous in cells; host or cells: NIH3T3 (murine fibroblasts)
T1 sequence (Q6VVW5 17-1047): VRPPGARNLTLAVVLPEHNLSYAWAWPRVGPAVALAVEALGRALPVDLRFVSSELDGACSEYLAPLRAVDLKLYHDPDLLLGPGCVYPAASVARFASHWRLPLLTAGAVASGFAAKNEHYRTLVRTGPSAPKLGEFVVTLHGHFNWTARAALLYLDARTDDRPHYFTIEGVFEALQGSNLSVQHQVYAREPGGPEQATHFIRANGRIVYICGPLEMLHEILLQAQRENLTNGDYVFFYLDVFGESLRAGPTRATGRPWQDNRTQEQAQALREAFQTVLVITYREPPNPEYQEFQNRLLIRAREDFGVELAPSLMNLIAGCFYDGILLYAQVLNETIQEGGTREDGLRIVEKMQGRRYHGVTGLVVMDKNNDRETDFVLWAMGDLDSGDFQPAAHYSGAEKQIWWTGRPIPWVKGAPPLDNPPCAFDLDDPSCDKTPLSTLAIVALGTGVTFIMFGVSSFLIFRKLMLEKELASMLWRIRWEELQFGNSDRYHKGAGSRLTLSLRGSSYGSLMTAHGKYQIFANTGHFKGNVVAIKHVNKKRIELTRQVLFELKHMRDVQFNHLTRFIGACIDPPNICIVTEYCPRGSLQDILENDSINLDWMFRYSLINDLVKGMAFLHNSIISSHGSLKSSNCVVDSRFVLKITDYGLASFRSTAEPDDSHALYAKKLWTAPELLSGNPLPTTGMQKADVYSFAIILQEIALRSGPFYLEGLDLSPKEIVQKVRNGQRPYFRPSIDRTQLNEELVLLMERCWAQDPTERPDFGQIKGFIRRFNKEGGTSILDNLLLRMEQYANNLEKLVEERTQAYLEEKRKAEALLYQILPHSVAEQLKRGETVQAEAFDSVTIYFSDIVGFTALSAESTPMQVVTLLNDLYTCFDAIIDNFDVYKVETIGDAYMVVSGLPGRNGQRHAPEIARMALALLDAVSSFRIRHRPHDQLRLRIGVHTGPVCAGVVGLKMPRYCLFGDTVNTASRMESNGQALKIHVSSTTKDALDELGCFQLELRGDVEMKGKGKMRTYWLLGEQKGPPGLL
Kind of series: Stimulation of cGMP production in NIH3T3 cells. Format: cell-based, Murine. The conditions noted are these: for cGMP response relative to 1 uM CNP22 (%) at 0.01 µM: read-out: cGMP Response rel. to 1 uM CNP22, 10 nM; for cGMP response relative to 1 uM CNP22 (%) at 1 µM: read-out: cGMP Response rel. to 1 uM CNP22, 1 uM.

Series [1] deals with neutral endopeptidase (NEP) (Homo sapiens, UniProt P08473). Kind of series: in vitro. To be noted: human, pH 7. How it is done: as §1, §2
Sequence of neutral endopeptidase (NEP) (P08473 whole entry): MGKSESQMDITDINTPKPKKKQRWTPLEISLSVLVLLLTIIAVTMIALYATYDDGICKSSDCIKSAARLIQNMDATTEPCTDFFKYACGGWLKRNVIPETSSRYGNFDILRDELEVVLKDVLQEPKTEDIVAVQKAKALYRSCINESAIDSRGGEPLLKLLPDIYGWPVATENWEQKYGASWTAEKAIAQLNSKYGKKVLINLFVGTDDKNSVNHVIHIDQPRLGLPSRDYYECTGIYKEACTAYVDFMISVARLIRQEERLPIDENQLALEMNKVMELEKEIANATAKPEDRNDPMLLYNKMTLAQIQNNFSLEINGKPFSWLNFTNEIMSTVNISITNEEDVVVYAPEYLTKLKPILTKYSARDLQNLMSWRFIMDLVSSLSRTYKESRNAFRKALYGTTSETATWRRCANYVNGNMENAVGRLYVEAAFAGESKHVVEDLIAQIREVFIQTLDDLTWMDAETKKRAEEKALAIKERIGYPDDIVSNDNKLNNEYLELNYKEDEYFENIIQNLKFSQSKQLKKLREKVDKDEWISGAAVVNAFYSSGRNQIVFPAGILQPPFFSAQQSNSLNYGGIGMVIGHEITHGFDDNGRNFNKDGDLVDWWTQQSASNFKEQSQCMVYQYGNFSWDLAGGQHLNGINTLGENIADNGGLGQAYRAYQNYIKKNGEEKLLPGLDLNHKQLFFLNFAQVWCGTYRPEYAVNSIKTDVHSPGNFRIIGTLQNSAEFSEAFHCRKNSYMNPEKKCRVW
Where [2] appears, read: NIH3T3 cells, 10 nM natriuretic peptide, normalized to cell number and cGMP production with 1 uM wtCNP22.
Setting [3] is: NIH3T3 cells, 1 uM natriuretic peptide, normalized to cell number and cGMP production with 1 uM wtCNP22.

Sequence of Recombinant human NEP (P08473 whole entry): as above

Regarding `CC[C@H](C)[C@@H]1NC(=O)[C@H](CCCNC(=N)N)NC(=O)[C@H](CC(=O)O)NC(=O)[C@H](CC(C)C)NC(=O)[C@H](CCCCN)NC(=O)[C@H](CC(C)C)NC(=O)CNC(=O)[C@H](Cc2ccccc2)NC[C@@H](NC(=O)CNC(=O)[C@H](CCCCN)NC(=O)[C@H](CO)NC(=O)[C@H](CC(C)C)NC(=O)CN)CSSC[C@@H](C(=O)O)NC(=O)CNC(=O)[C@H](CC(C)C)NC(=O)CNC(=O)[C@H](CO)NC(=O)[C@H](CCSC)NC(=O)[C@H](CO)NC(=O)CNC1=O` [A], the “resistance to cleavage at the Cys6-Phe7 bond relative to wtCNP22” value on Recombinant human NEP (data not shown) is listed as “resistance or improved resistance”.
With `CC[C@H](C)[C@@H]1NC(=O)[C@H](CCCNC(=N)N)NC(=O)[C@H](CC(=O)O)NC(=O)[C@H](CC(C)C)NC(=O)[C@H](CCCCN)NC(=O)[C@H](CC(C)C)NC(=O)CNC(=O)[C@H](Cc2ccccc2)NC(=O)[C@@H](NC(=O)CNC(=O)[C@H](CCCNC(=N)N)NC(=O)[C@H](CO)NC(=O)[C@H](CC(C)C)NC(=O)CNC(=O)[C@H](CCCNC(=N)N)NC(=O)[C@H](CCCNC(=N)N)NC(=O)[C@H](CC(N)=O)NC(=O)[C@H](C)NC(=O)CN)CSSC[C@@H](C(=O)O)NC(=O)CNC(=O)[C@H](CC(C)C)NC(=O)CNC(=O)[C@H](CO)NC(=O)[C@H](CCSC)NC(=O)[C@H](CO)NC(=O)CNC1=O` [Analog AY] (H-GANRRGLSRGCFGLKLDRIGSMSGLGC-OH; disulfide 11-27 (inferred); N-terminus and C-terminus assumed), the “resistance to NEP cleavage/degradation (in words)” value at Recombinant human NEP is reported as “same lability to NEP hydrolysis as CNP22”.
As to `CC[C@H](C)[C@@H]1NC(=O)[C@H](CCCNC(=N)N)NC(=O)[C@H](CC(=O)O)NC(=O)[C@H](CC(C)C)NC(=O)[C@H](CCCCN)NC(=O)[C@H](CC(C)C)NC(=O)CNC(=O)[C@H](Cc2ccccc2)NC(=O)[C@@H](NC(=O)CNC(=O)[C@H](CCCCN)NC(=O)[C@H](CO)NC(=O)[C@H](CC(C)C)NC(=O)CNC(=O)[C@H](CCCCN)NC(=O)[C@H](CCCCN)NC(=O)[C@H](CC(N)=O)NC(=O)[C@H](C)NC(=O)CNC(=O)[C@H](CCCCN)NC(=O)[C@H](Cc2ccc(O)cc2)NC(=O)[C@H](CCCCN)NC(=O)[C@H](CCCNC(=N)N)NC(=O)[C@H](C)NC(=O)[C@H](CC(N)=O)NC(=O)[C@@H]2CCCN2C(=O)[C@H](Cc2c[nH]cn2)NC(=O)[C@H](CCC(=O)O)NC(=O)[C@@H](N)CCC(N)=O)CSSC[C@@H](C(=O)O)NC(=O)CNC(=O)[C@H](CC(C)C)NC(=O)CNC(=O)[C@H](CO)NC(=O)[C@H](CCSC)NC(=O)[C@H](CO)NC(=O)CNC1=O` [Analog BL], on Recombinant human NEP, the “resistance to NEP cleavage/degradation (in words)” value is reported as “resistant to NEP degradation”.
As to `CC[C@H](C)[C@@H]1NC(=O)[C@H](CCCNC(=N)N)NC(=O)[C@H](CC(=O)O)NC(=O)[C@H](CC(C)C)NC(=O)[C@H](CCCCN)NC(=O)[C@H](CC(C)C)NC(=O)CNC(=O)[C@H](Cc2ccccc2)NC(=O)[C@@H](NC(=O)CNC(=O)[C@H](CCCNC(=N)N)NC(=O)[C@H](CO)NC(=O)[C@H](CC(C)C)NC(=O)CNC(=O)[C@H](CO)NC(=O)[C@H](CO)NC(=O)[C@H](CC(N)=O)NC(=O)[C@H](C)NC(=O)CN)CSSC[C@@H](C(=O)O)NC(=O)CNC(=O)[C@H](CC(C)C)NC(=O)CNC(=O)[C@H](CO)NC(=O)[C@H](CCSC)NC(=O)[C@H](CO)NC(=O)CNC1=O` [CG] (H-GANSSGLSRGCFGLKLDRIGSMSGLGC-OH; disulfide 11-27 (inferred); N-terminus and C-terminus assumed), the cGMP response relative to 1 uM CNP22 (%) at 0.01 µM at NPR-B (setting [2]) turned out to be 27 ± 1%. Moreover, the cGMP response relative to 1 uM CNP22 (%) at 1 µM on NPR-B (setting [3]) was determined as 88 ± 1%. Besides, the half-life at 100 uM in series [1] was found to be 1.58 h.
With `CC[C@H](C)[C@@H]1NC(=O)[C@H](CCCNC(=N)N)NC(=O)[C@H](CC(=O)O)NC(=O)[C@H](CC(C)C)NC(=O)[C@H](CCCCN)NC(=O)[C@H](CC(C)C)NC(=O)CNC(=O)[C@H](Cc2ccccc2)NC(=O)[C@@H](NC(=O)CNC(=O)[C@H](CCCCN)NC(=O)[C@H](CO)NC(=O)[C@H](CC(C)C)NC(=O)CNC(=O)[C@H](CCCCN)NC(=O)[C@@H]2CCCN2C(=O)[C@H](CC(N)=O)NC(=O)[C@H](C)NC(=O)CNC(=O)[C@H](CCCCN)NC(=O)[C@H](Cc2ccc(O)cc2)NC(=O)[C@H](CCCCN)NC(=O)[C@H](CCCNC(=N)N)NC(=O)[C@H](C)NC(=O)[C@H](CC(N)=O)NC(=O)[C@@H]2CCCN2C(=O)[C@H](Cc2c[nH]cn2)NC(=O)[C@H](CCC(=O)O)NC(=O)[C@H](CCC(N)=O)NC(=O)CN)CSSC[C@@H](C(=O)O)NC(=O)CNC(=O)[C@H](CC(C)C)NC(=O)CNC(=O)[C@H](CO)NC(=O)[C@H](CCSC)NC(=O)[C@H](CO)NC(=O)CNC1=O` [CS] (H-GQEHPNARKYKGANPKGLSKGCFGLKLDRIGSMSGLGC-OH; disulfide 22-38 (inferred); N-terminus and C-terminus assumed), the cGMP response relative to 1 uM CNP22 (%) at 0.01 µM on NPR-B (setting [2]) was 19%. For the same compound, on NPR-B (setting [3]), the cGMP response relative to 1 uM CNP22 (%) at 1 µM was determined as 61%. The half-life at 100 uM in series [1] was > 2.67 h.
As for `CC[C@H](C)[C@@H]1NC(=O)[C@H](CCCNC(=N)N)NC(=O)[C@H](CC(=O)O)NC(=O)[C@H](CC(C)C)NC(=O)[C@H](CCCCN)NC(=O)[C@H](CC(C)C)N(C)C(=O)CNC(=O)[C@H](Cc2ccccc2)NC(=O)[C@@H](NC(=O)CNC(=O)[C@H](CCCCN)NC(=O)[C@H](CO)NC(=O)[C@H](CC(C)C)NC(=O)CN)CSSC[C@@H](C(=O)O)NC(=O)CNC(=O)[C@H](CC(C)C)N(C)C(=O)CNC(=O)[C@H](CO)NC(=O)[C@H](CCSC)NC(=O)[C@H](CO)NC(=O)CNC1=O` [K], on NPR-B (NIH3T3, […]), the cGMP response relative to 1 uM CNP22 (%) at 0.01 µM turned out to be 1% and the cGMP response relative to 1 uM CNP22 (%) at 1 µM is 1%. This compound registered a half-life at 100 uM in series [1] of 1.33 h.
For the compound `CC[C@H](C)[C@@H]1NC(=O)[C@H](CCCNC(=N)N)NC(=O)[C@H](CC(=O)O)NC(=O)[C@H](CC(C)C)NC(=O)[C@H](CCCCN)NC(=O)[C@H](CC(C)C)NC(=O)CNC(=O)[C@H](Cc2ccccc2)NC(=O)[C@@H](NC(=O)CNC(=O)[C@H](CCCCN)NC(=O)[C@H](CO)NC(=O)[C@H](CC(C)C)NC(=O)CNC(=O)CCCC(=O)NCCOCCOCCOCCOCCC(=O)NC(COCCC(=O)NCCOCCOCCOCCOCCOCCOCCOCCOCCOCCOCCOCCOC)(COCCC(=O)NCCOCCOCCOCCOCCOCCOCCOCCOCCOCCOCCOCCOC)COCCC(=O)NCCOCCOCCOCCOCCOCCOCCOCCOCCOCCOCCOCCOC)CSSC[C@@H](C(=O)O)NC(=O)CNC(=O)[C@H](CC(C)C)NC(=O)CNC(=O)[C@H](CO)NC(=O)[C@H](CCSC)NC(=O)[C@H](CO)NC(=O)CNC1=O` [PEO4-(PEO12)3 (branched)-CNP22], the cGMP response relative to 1 uM CNP22 (%) at 0.01 µM on NPR-B (setting [2]) was 17 ± 1%. Besides, the cGMP response relative to 1 uM CNP22 (%) at 1 µM on NPR-B (setting [3]) came to 52 ± 6%. In addition, the half-life at 100 uM in series [1] is > 2.67 h.
Take `CC[C@H](C)[C@@H]1NC(=O)[C@H](CCCNC(=N)N)NC(=O)[C@H](CC(=O)O)NC(=O)[C@H](CC(C)C)NC(=O)[C@H](CCCCN)NC(=O)[C@H](CC(C)C)NC(=O)CNC(=O)[C@H](Cc2ccccc2)NC(=O)[C@@H](NC(=O)CNC(=O)[C@H](CCCCN)NC(=O)[C@H](CO)NC(=O)[C@H](CC(C)C)NC(=O)CNC(=O)CCOCCOCCOCCOCCOCCOCCOCCOCCOCCOCCOCCOC)CSSC[C@@H](C(=O)O)NC(=O)CNC(=O)[C@H](CC(C)C)NC(=O)CNC(=O)[C@H](CO)NC(=O)[C@H](CCSC)NC(=O)[C@H](CO)NC(=O)CNC1=O` [PEO12-CNP22]: at NPR-B (setting [2]), the cGMP response relative to 1 uM CNP22 (%) at 0.01 µM was found to be 12 ± 7%. Besides, the cGMP response relative to 1 uM CNP22 (%) at 1 µM on NPR-B (setting [3]) turned out to be 57 ± 18%. In addition, the half-life at 100 uM in series [1] was ≥ 2.67 h.
On to “DLRVDTKSRAAWARLLQEHPNARKYKGANKKGLSKGCFGLKLDRIGSMSGLGC (disulfide 37-53) [BM]”, for which the cGMP response relative to 1 uM CNP22 (%) at 0.01 µM on NPR-B (setting [2]) was 61%. Moreover, the cGMP response relative to 1 uM CNP22 (%) at 1 µM on NPR-B (setting [3]) turned out to be 101%. In series [1], the half-life at 100 uM is > 2.67 h.
